“Also recorded” adds a separate entry of the source.
Assays:
NIH/3T3 cell line = test: Alamar blue viability assay in NIH/3T3 cells; type: cell-based, mouse; conditions: 0.31-5 μM ML228, 48 hours, p<0.0001
Method: Embryonic mouse fibroblast NIH/3T3 cell line (ATCC) were seeded at a concentration of 50*10^3 cells/well on 96 well glass bottom plate (P96-1.5H-N, Cellvis) for the immunofluorescence experiment and on cell culture microplate, 96 well, PS, F-Bottom (655090, greiner) for the viability experiment. The cells were cultured with Dulbecco's modified Eagle's medium (DMEM) supplemented with 10% fetal calf serum, 1% Penicillin-Streptomycin solution and 1% L-glutamine (All purchased from Rhenium). At 24 hours post seeding, cells were treated for another 48 hours by replacing them with the cell medium supplemented with a serial dilution (5-0.02 μM, factor dilution of 2) of the ML228, Daprodustat, Enarodustat, Molidustat, Vadadustat or Roxadustat molecules dissolved in DMSO. The final DMSO concentration in the cell medium was 0.01%. […]
For the ML228 experiment, at 48 hours post treatment, cells were stained by replacing the cell medium with Alamar blue (Enco, Petach Tikvah, Israel) diluted 1:10 in the cell medium, and incubated for 4 hours (37° C., 5% CO2). Then, fluorescence readouts were obtained using the Spark multimode microplate reader (Tecan) at excitation/emission 540±20 nm/590±20 nm. Cell viability was calculated as the percentage difference of treated cells with ML228 relative to the control cells at 590±20 nm emission.

MG-63 osteoblasts = test: Collagen-I immunofluorescence in MG-63 osteoblasts treated with ML228; type: cell-based, human
Method: MG-63 human osteosarcoma cell lines were obtained from the American Type Culture Collection (ATCC, Manassas, VA, USA). Cells were cultured in α-MEM supplemented with 10% FCS, 100 U/ml penicillin, and […] streptomycin at 37° C. in a humidified atmosphere incubator containing 5% CO2. Before treatment with ML228, 5,000 and 50,000 cells/well were seeded in a 96 or 24 well-plate, respectively.
Cells were cultured to sub-confluence on a 96-well plate culture plate or on round-glass cover slips in a 24 well plate and incubated with ML228 at 37° C. in 5% CO2 for 24-96 hours. […] Fluorescence readouts were obtained with excitation/emission (ex/em) of 495/519 nanometer (nm; green) and 340/488 nm (blue) (for FIGS. 2B and 2D); or with ex/em of 358/461 nm (blue), 495/519 nm (green) and 652/668 nm (red) (for FIG. 5A).
All images were analyzed with the computer-based image analysis system (Image J) using the Fiji 2 software (National Institute of Health). Equal field areas were selected for analysis and quantification of fluorescence signals. Quantification of fluorescence signal intensity measured by color threshold and normalized against β-tubulin intensity. Total collagen was evaluated by total fluorescence area intensity.
The effect of ML228 (chemical structure thereof is depicted in FIG. 1), a known activator of HIF, on fibroblasts and osteoblasts was analyzed. […]

MG-63 cells = test: live/dead viability assay, osteoblasts; type: cell-based; conditions: MG-63 osteoblasts, ML228 0.62 and 5 μM, 48 hours
Method: The live/dead viability assay (cat #04511-1KT-F Merck, Germany) was used according to the manufacturer's protocol. Briefly, cells were incubated in a medium supplemented with the indicated concentrations of ML228 for 48 hours. Fluorescein diacetate (6.6 μg/mL) and propidium iodide (5 μg/mL) (Merck, NJ, USA) were prepared in DMEM and added to the cells. Confocal images were captured after addition of the dyes with ZEISS LSM 900, Laser Scanning Microscope. Fluorescence readouts were obtained with ex/em of 490/515 nm and 535/617 nm for green and red, respectively. Cellular ATP levels were quantified using the cell-titer assay (Promega, WI, USA cat #G7570).

Compound: c1ccc(-c2ccc(CNc3nc(-c4ccccn4)nnc3-c3ccccc3)cc2)cc1 [ML228, N-([1,1′-Biphenyl]-4-ylmethyl)-6-phenyl-3-(2-pyridinyl)-1,2,4-triazin-5-amine]
- viability compared to untreated cells (NIH/3T3 cell line): lower viability
- concentration of maximum enhancement of Collagen-I (MG-63 osteoblasts; MG-63, 48 hours, normalized to cell number (DAPI), FIG. 9B): 5 µM
- increase in collagen levels compared to non-treated cells (MG-63 osteoblasts; osteoblasts (MG-63), variable ML228 concentrations, 48 hours): more than a three-fold increase; also recorded: increased
- cell death / cellular toxicity (live/dead assay) (MG-63 cells): without imparting cellular toxicity; also recorded: Almost no dead cells were observed; also recorded: not an increase in cell death

Reference: US20250171821A1, “HIF-1 ACTIVATORS AND USES THEREOF” (Ramot at Tel-Aviv University Ltd., priority 2022, published 2025)
